Data taken from patent US6207438A, “Method for preparing a product in particular for preventing and curing skin diseases, and resulting product” (priority 1998, dated 2001).
Where “and” joins values, the source holds several entries; their conditions need not be identical. Equal entries are not always repeated.

Columns and labels:
[1] = biological target: T1, 5α reductase (5αR) (Canis lupus familiaris, UniProt A0A8I3NQ64); experiment: Inhibitor effect on 5α reductase of dog prostate extract (radio-chemical method); type: biochemical; details: 0.1 mM
T1 construct: raw extract of dog prostate; from tissue; host or cells: dog prostate, raw extract
T1 sequence (A0A8I3NQ64 1-254): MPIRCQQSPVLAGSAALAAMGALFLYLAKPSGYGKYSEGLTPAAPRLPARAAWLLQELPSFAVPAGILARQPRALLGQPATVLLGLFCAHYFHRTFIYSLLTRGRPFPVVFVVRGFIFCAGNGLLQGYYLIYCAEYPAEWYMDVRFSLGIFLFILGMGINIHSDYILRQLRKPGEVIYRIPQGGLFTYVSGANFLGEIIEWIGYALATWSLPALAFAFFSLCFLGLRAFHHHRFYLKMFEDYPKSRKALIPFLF
From the text: It is known that enzymes of the type 5α reductase (5αR) transform testosterone into 17β-hydrosy-5α-androstan-3-one or […]. This reaction is crucial in the action of androgens. These enzymes are present in the keratinocytes of the epidermis, in the fibroblasts of the dermis, and in the sebaccous glands in particular.
Solutions of the product were created at five times the final concentration used in the reaction, in a citrate-phosphate buffer at 0.1 M and pH=5.6 (buffer used in the 5αR reaction). The 5αR reference inhibitor was finasteride (Chibro-Prosacar®, in 5 mg tablets), and tested at the concentration of 500 μg/ml after dilution in the citrate-phosphate buffer at 0.1 M.
The enzymatic extract used was a raw extract of dog prostate prepared in a tris buffer of 0.1 M/sucrose 20%, pH=7.5. The sample was calibrated in such a way as to transform approximately 0.1 pmole of testosterone with 50 μl of extract (being an arbitrary unit of the enzyme).
The mixtures were incubated for 4 hours at 37° C., then the testosterone and the derivatives formed were extracted by 500 μl of dichloromethane. The fraction of dichloromethane was drawn off, dried under a nitrogen flow, and chromatographed on silica in a dichloromethane/ethyl acetate/methanol system (proportions 85:15:3). The plates obtained were autoradiographed on Kodak MP® films.
The evaluation of the quantity of testosterone transformed was carried out after sectioning the products formed and counting them in liquid scintillation.

[2] = system: Micrococcus kristinae; experiment: microbe, parasite or virus in culture; type: cell-based; details: Rothia kristinae, 48 h, read-out: Factor of increase of the quantity of M. kristinae
Method: (§1) Second In Vitro Test Establishing an Effect on Pathogenic and Non-pathogenic Flora
(§2) The effects of an oligosaccharide of a degree of polymerisation close to 10 according to the said first method, and of a chelate of this oligosaccharide+Zn, were evaluated on the non-pathogenic strain Micrococcus kristinae, the pathogenic strain Staphylococcus aureus, and the pathogenic strain Propionibacterium acnes. This latter strain is particularly involved in the irritations occurring in the course of cutaneous acne infections.
(§3) The bacteria are cultured in a saline medium (5.6 g/l of NaCl 2.812 g/l of KH2 PO4), containing pancreatic peptone (5.625 g/l) and extracts of heart/brain (9.843 g/l). The strains M. kristinae and S. aureus are cultured in an aerobic medium, and the strain P. acnes is cultured in an anaerobic medium, either in the presence of 5 g/l of glucose (traditional carbonaceous source) or in the presence of a product according to the invention (oligosaccharide of degree of polymerisation close to 10 alone, or this oligosaccharide forming a chelate with zinc), or in the presence of the medium alone (control cultures). The quantity of bacteria being cultured is evaluated after 48 hours of culturing by turbidimetry at 750 nm.

[3] = system: Propionibacterium acnes; experiment: microbe, parasite or virus in culture; type: cell-based; details: Cutibacterium acnes, 48 h, read-out: Factor of increase of the quantity of P. acnes
Method: as §1, §2, §3

[4] = system: Staphylococcus aureus; experiment: microbe, parasite or virus in culture; type: cell-based; details: 48 h, read-out: Factor of increase of the quantity of S. aureus
Method: as §1, §2, §3

Mean (cpm total) [1]	Mean e - T [1]	inhibition at 100 µM [1]	cpm ASD ([1]; listed as F)	cpm DHT ([1]; listed as F)	cpm total ([1]; listed as F)	activity at 100 µM ([1]; pH 5.6, enzyme control = 100)	Structure (SMILES)	fold induction at 5000 µg/mL [2]	fold induction at 5000 µg/mL [3]	fold induction at 5000 µg/mL [4]
1080 cpm	647 cpm	85%	880 cpm and 748 cpm and 647 cpm	343 cpm and 262 cpm and 359 cpm	1223 cpm and 1010 cpm and 1006 cpm	15%	CC(C)(C)NC(=O)[C@H]1CC[C@H]2[C@@H]3CC[C@H]4NC(=O)C=C[C@]4(C)[C@H]3CC[C@]12C [finasteride]	–	–	–
–	–	–	–	–	–	–	O=C[C@H](O)[C@@H](O)[C@H](O)[C@H](O)CO [glucose]	2.2	5.2	1.6
